Literature values in patent EP2594258B1, “Oral gel comprising praziquantel” (Veterinärmedizinische Universität Wien, priority 2011, dated 2013).

In the case of `O=C(C1CCCCC1)N1CC(=O)N2CCc3ccccc3C2C1` (racemic) [Praziquantel, (RS)-2-Cyclohexylcarbonyl-2,3,4,6,7,11b-hexahydro-1H-pyrazino(2,1-a) isoquinolin-4-on], the solubility in chloroform (chloroform) is given as “easily soluble”, the solubility in dimethylsulfoxide (dimethylsulfoxide) is given as “easily soluble” and the solubility in ethanol (ethanol) is given as “soluble”. The solubility in water (water) was “up to 400 mg/L”.
For `CCCSc1ccc2nc(NC(=O)OC)[nH]c2c1` [albendazole], the intoxication following treatment (alpacas) is given as “Lethal intoxications”.
